Assays:
Assay in all cases: area over the GR curve, 72 h; higher = more effect;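 further: Dye Drop or Deep Dye Drop imaging of viable cells in 384-well plates (Hoechst nuclei, LIVE/DEAD dye), nine half-log doses, GR normalized to DMSO controls and time-zero plates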
[1] = test system: HCC70
[2] = test system: HCC1569
[3] = test system: HCC1806
[4] = test system: HCC1954
[5] = test system: ZR751
[6] = test system: SUM52PE
[7] = test system: MDAMB468
[8] = test system: MDAMB436
[9] = test system: MDAMB330
[10] = test system: HS578T
[11] = test system: HCC38
[12] = test system: MDAMB415
[13] = test system: MCF12A

| SMILES | area over the GR curve [1] [GR] | area over the GR curve [2] [GR] | area over the GR curve [3] [GR] | area over the GR curve [4] [GR] | area over the GR curve [5] [GR] | area over the GR curve [6] [GR] | area over the GR curve [7] [GR] | area over the GR curve [8] [GR] | area over the GR curve [9] [GR] | area over the GR curve [10] [GR] | area over the GR curve [11] [GR] | area over the GR curve [12] [GR] | area over the GR curve [13] [GR] |
| --- | --- | --- | --- | --- | --- | --- | --- | --- | --- | --- | --- | --- | --- |
| CCc1cnn2c(NCc3ccc[n+]([O-])c3)cc(N3CCCC[C@H]3CCO)nc12 (max 1 µM) | 0.803 | 0.541 | 0.643 | 0.629 | 0.468 | 0.491 | 0.568 | 0.483 | 0.101 | 0.616 | 0.62 | 0.55 | 0.424 |
| COc1cccc(OCCCN)c1-c1cc(Nc2cnc(C#N)cn2)n[nH]1 | 1.64 | 0.355 | 1.39 | 1.21 | 0.3 | 0.425 | 0.227 | 0.545 | 0.718 | 1.3 | 0.858 | 0.0862 | 0.589 |
| CC(C)n1nc(-c2ccc3oc(N)nc3c2)c2c(N)ncnc21 [INK128/MLN0128] (max 3.162 µM) | 0.702 | 0.508 | 0.39 | 0.565 | 0.679 | 0.572 | 0.502 | 0.429 | 1.08 | 0.623 | 0.536 | 0.692 | 0.495 |
| Nc1cc(C(F)(F)F)c(-c2cc(N3CCOCC3)nc(N3CCOCC3)n2)cn1 [Buparlisib/NVP-BKM120] (max 10 µM) | 0.435 | 0.298 | 0.305 | 0.39 | 0.256 | 0.338 | 0.357 | 0.292 | 0.442 | 0.376 | 0.254 | 0.35 | 0.168 |
| COc1cc2nccc(Oc3ccc(NC(=O)C4(C(=O)Nc5ccc(F)cc5)CC4)cc3)c2cc1OC [Cabozantinib] (max 10 µM) | 0.255 | 0.0157 | -0.021 | -0.0867 | -0.0852 | 0.249 | 0.0415 | 0.0531 | 0 | 0.134 | 0.0283 | -0.0499 | -0.0141 |
| Cc1cc(C(C)Nc2ccccc2)c2nc(N3CCOCC3)cc(=O)n2c1 (stereo not drawn) [TGX221] (max 10 µM) | 0.467 | 0.0644 | -0.02 | -0.0656 | 0.354 | 0.0531 | 0.103 | -0.0103 | -0.0042 | 0.0668 | -0.0299 | 0.224 | -0.0153 |
| CN(C)C/C=C/C(=O)Nc1ccc(C(=O)N2CCC[C@@H](Nc3ncc(Cl)c(-c4c[nH]c5ccccc45)n3)C2)cc1 [THZ531] (max 1 µM) | 0.462 | 0.312 | 0.134 | 0.143 | 0.124 | 0.222 | 0.404 | 0.158 | 0.747 | 0.377 | 0.223 | 0.434 | 0.0965 |
| CCC(=O)Nc1ccc(C(=O)Nc2ccc(Nc3ncc4c(n3)N(C)c3ccc(C)cc3C(=O)N4C)cc2)cc1 [FMF-03-145-1] | 1.31 | 1 | 1.08 | 1.15 | 0.391 | 0.91 | 0.572 | 0.465 | 0.814 | 1.07 | 0.581 | 0.845 | 0.345 |
| CN(C)C/C=C/C(=O)Nc1ccc(O[C@@H]2CCC[C@@H](Nc3ncc(Cl)c(-c4c[nH]c5ccccc45)n3)C2)cc1 [BSJ-01-175] (max 10 µM) | 1.07 | 0.907 | 0.581 | 0.66 | 0.189 | 0.618 | 0.892 | 0.82 | 1.22 | 1.07 | 0.603 | 0.676 | 0.146 |
| CN1CCN(C(=O)c2ccc3cc(CCNc4ncnc5ccc(C#N)cc45)ccc3c2)CC1 [senexin b] (max 10 µM) | 0.209 | 0.158 | 0.0969 | 0.327 | 0.05 | 0.141 | 0.28 | 0.0859 | 0.146 | 0.139 | 0.152 | 0.173 | 0.11 |
| CC(=O)Nc1cccc(-n2c(=O)n(C3CC3)c(=O)c3c(Nc4ccc(I)cc4F)n(C)c(=O)c(C)c32)c1 (max 1 µM) | 0.692 | 0.135 | 0.104 | 0.401 | 0.328 | 0.224 | 0.213 | 0.182 | 0.218 | 0.491 | 0.207 | 0.174 | 0.531 |
| CN(C)C/C=C/C(=O)Nc1ccc(C(=O)Nc2cccc(Nc3ncc(Cl)c(-c4c[nH]c5ccccc45)n3)c2)cc1 [THZ1] (max 1 µM) | 0.762 | 0.363 | 0.367 | 0.31 | 0.162 | 0.527 | 0.48 | 0.196 | 0.86 | 0.518 | 0.525 | 0.453 | 0.256 |
| CCNC(=O)c1noc(-c2cc(C(C)C)c(O)cc2O)c1-c1ccc(CN2CCOCC2)cc1 [Luminespib/NVP-AUY922] (max 1 µM) | 0.732 | 0.513 | 0.539 | 0.601 | 0.362 | 0.6 | 0.648 | 0.633 | 0.887 | 0.67 | 0.624 | 0.613 | 0.619 |
| C[C@@H]1COCCN1c1cc(C2([S@](C)(=N)=O)CC2)nc(-c2cc[nH]c3nccc2-3)n1 [AZD6738] (max 10 µM) | 0.283 | 0.053 | 0.307 | -0.0136 | 0.03 | 0.0121 | 0.0381 | 0.0381 | 0.0364 | 0.0772 | 0.247 | 0.0148 | 0.192 |
| C=CC(=O)Nc1ccc(C(=O)Nc2[nH]nc3c2CN(C(=O)N[C@H](CN(C)C)c2ccccc2)C3(C)C)cc1 [YKL-5-124] (max 10 µM) | 1.46 | 0.736 | 1.01 | 0.969 | 0.717 | 0.564 | 1.11 | 0.584 | 0.925 | 0.815 | 0.928 | 0.664 | 0.803 |
| CCCCOc1c(C(=O)c2c(F)cc(C)cc2F)c[nH]c2nncc1-2 (max 10 µM) | 0.914 | 0.657 | 0.455 | 0.835 | 0.209 | 0.464 | 0.516 | 0.355 | 0.372 | 0.651 | 0.768 | 0.349 | 0.272 |

| SMILES | area over the GR curve [1] [GR] | area over the GR curve [2] [GR] | area over the GR curve [3] [GR] | area over the GR curve [4] [GR] | area over the GR curve [5] [GR] | area over the GR curve [6] [GR] | area over the GR curve [7] [GR] | area over the GR curve [8] [GR] | area over the GR curve [9] [GR] | area over the GR curve [10] [GR] | area over the GR curve [11] [GR] | area over the GR curve [12] [GR] | area over the GR curve [13] [GR] |
| --- | --- | --- | --- | --- | --- | --- | --- | --- | --- | --- | --- | --- | --- |
| CC(=O)O[C@H]1C(=O)[C@@]2(C)[C@H]([C@H](OC(=O)c3ccccc3)[C@]3(O)C[C@H](OC(=O)[C@H](O)[C@@H](NC(=O)c4ccccc4)c4ccccc4)C(C)=C1C3(C)C)[C@]1(OC(C)=O)CO[C@@H]1C[C@@H]2O [Paclitaxel] (max 1 µM) | 0.977 | 0.663 | 0.838 | 0.827 | 0.511 | 0.898 | 1.01 | 0.708 | 0.846 | 0.954 | 0.843 | 0.948 | 0.586 |
| CCN1CCN(Cc2ccc(Nc3ncc(F)c(-c4cc(F)c5nc(C)n(C(C)C)c5c4)n3)nc2)CC1 (max 10 µM) | 0.145 | 0.132 | 0.392 | 0.458 | 0.429 | 0.341 | 0.176 | 0.187 | 0.722 | 0.634 | 0.64 | 0.71 | 0.169 |
| CN(C)C(=O)c1cc2cnc(Nc3ccc(N4CCNCC4)cn3)nc2n1C1CCCC1 [LEE011/Ribociclib] (max 10 µM) | -0.0535 | -0.108 | 0.141 | 0.309 | 0.258 | 0.215 | 0.0162 | -0.012 | 0.824 | 0.351 | 0.417 | 0.613 | 0.0926 |
| Cc1nc(Nc2ncc(C(=O)Nc3c(C)cccc3Cl)s2)cc(N2CCN(CCO)CC2)n1 [Dasatinib] (max 10 µM) | 1.06 | 0.483 | 0.63 | 0.189 | 0.687 | 0.451 | 0.143 | 0.102 | 0.183 | 0.71 | 0.145 | 0.272 | 0.42 |
| CO[C@@H](C)Cn1c(=O)n(C)c2cnc3ccc(-c4cncc(C(C)(C)O)c4)cc3c21 (max 10 µM) | 0.8 | 0.768 | 0.43 | 0.822 | 0.691 | 0.75 | 0.669 | 0.372 | 1.31 | 0.688 | 0.664 | 0.922 | 0.476 |
| COc1cccc2c1C(=O)c1c(O)c3c(c(O)c1C2=O)C[C@@](O)(C(=O)CO)C[C@@H]3O[C@H]1C[C@H](N)[C@H](O)[C@H](C)O1 [Doxorubicin] (max 3.162 µM) | 0.775 | 0.492 | 0.628 | 0.73 | 0.497 | 0.321 | 0.912 | 0.706 | 0.716 | 0.801 | 0.78 | 0.834 | 0.601 |
| CC(=O)c1c(C)c2cnc(Nc3ccc(N4CCNCC4)cn3)nc2n(C2CCCC2)c1=O (max 3.162 µM) | -0.0552 | 0.0095 | 0.146 | 0.176 | 0.12 | 0.201 | -0.0231 | -0.0424 | 0.47 | 0.32 | 0.371 | 0.454 | 0.0837 |
| Cc1nn(C)c(COc2ccc(N3CCN(S(=O)(=O)N(C)C)CC3)cc2)c1-c1cccc2c(CCCOc3cccc4ccccc34)c(C(=O)O)n(CCN3CCOCC3)c12 (max 10 µM) | 0.0018 | -0.0353 | -0.0123 | -0.0351 | -0.0518 | 0.0586 | 0.0206 | 0.014 | 0.0479 | -0.0079 | 0.0151 | 0.0101 | -0.0165 |
| CN(C)C/C=C/C(=O)Nc1ccc(C(=O)Nc2cccc(Nc3cc(-c4c[nH]c5ccccc45)ncn3)c2)cc1 [THZ-P1-2] (max 10 µM) | 0.326 | 0.0873 | 0.199 | 0.114 | 0.0386 | 0.129 | 0.344 | 0.272 | 0.592 | -0.017 | 0.181 | 0.683 | 0.0465 |
| CN1CCN(CCOc2cc(OC3CCOCC3)c3c(Nc4c(Cl)ccc5c4OCO5)ncnc3c2)CC1 [Saracatinib/AZD0530] (max 10 µM) | 0.573 | 0.188 | 0.233 | 0.191 | 0.163 | 0.0817 | 0.139 | 0.0385 | 0.303 | 0.159 | 0.101 | 0.208 | 0.0317 |
| CC(C)Nc1cc(-c2c[nH]c(C(=O)N[C@H](CO)c3cccc(Cl)c3)c2)c(Cl)cn1 [BVD523] (max 10 µM) | 0.296 | -0.026 | 0.0314 | 0.242 | 0.122 | 0.129 | 0.267 | 0.0948 | 0.133 | 0.316 | 0.237 | 0.121 | 0.111 |
| Cc1cc(Nc2ncc(Cl)c(Nc3ccccc3S(=O)(=O)C(C)C)n2)c(OC(C)C)cc1C1CCNCC1 [Ceritinib/LDK378] (max 10 µM) | 0.0676 | 0.124 | 0.156 | 0.124 | 0.16 | 0.0274 | 0.405 | 0.415 | 0.187 | 0.305 | 0.208 | 0.085 | 0.0596 |
| NC1(C(=O)N[C@@H](CCO)c2ccc(Cl)cc2)CCN(c2nc[nH]c3nccc2-3)CC1 [AZD5363] (max 10 µM) | 0.661 | 0.433 | 0.0705 | 0.23 | 0.0911 | 0.196 | 0.135 | 0.104 | 0.52 | 0.248 | 0.0939 | 0.855 | 0.142 |
| CN(C)CC[C@H](CSc1ccccc1)Nc1ccc(S(=O)(=O)NC(=O)c2ccc(N3CCN(Cc4ccccc4-c4ccc(Cl)cc4)CC3)cc2)cc1[N+](=O)[O-] [ABT-737] (max 10 µM) | 0.0935 | 0.318 | -0.111 | 0.027 | 0.0133 | 0.0757 | 0.086 | -0.0008 | 0.189 | 0.026 | 0.296 | 0.0607 | 0.0052 |
| O=C1NC(=NCc2cccs2)SC1=Cc1ccc2ncccc2c1 [R0-3306] (max 10 µM) | 0.0814 | 0.022 | 0.085 | 0.0716 | 0.0473 | 0.0606 | 0.185 | 0.0623 | 0.0605 | 0.139 | 0.0714 | 0.0262 | 0.041 |

Source: the supplement of paper PMC9663587
